In patent US20130209543A1, “ENHANCED TREATMENT REGIMENS USING MTOR INHIBITORS” (Intellikine LLC, priority 2011, published 2013):

Columns and labels:
[1] = Phase I clinical trial: plasma pharmacokinetics; format: in vivo, human; conditions: for AUC / Cmax: oral
Protocol: Adult patients with histologically confirmed advanced solid tumors were enrolled in a 3+3 dose escalation Phase I study evaluating 3 intermittent schedules of administration for compound A: QW (once weekly), QD×3d QW (3 days on 4 days off), and QD×5d QW (5 days on 2 days off), in comparison with daily dosing (QD). Safety, maximum tolerated dose (MTD), pharmacokinetics (PK) and preliminary antitumor activity were evaluated.

[2] = test system: TORC1 (p4EBP1 and pS6) and TORC2 (pPRAS40); experiment: Human skin immunohistochemistry assay (skin biopsies, pathway inhibition); format: in vivo; conditions: 6 mg QD, read-out: PD (% inhibition, H score) Skin: 4EBP1/PRAS40
Protocol: Human Skin Immunohistochemistry Assay.
Skin tissue was fixed in 10% neutral-buffered formalin solution for 24 hours and then processed and embedded in paraffin block. Sections (4 μm) were cut and mounted onto microscopic slides. Sections were incubated with primary antibodies (p4EBP1, pS6, or pRAS40) overnight and developed using a chromogenic substrate.
Pharmacodynamic (PD) endpoints were evaluated in surrogate (peripheral blood cells [PBCs], skin) and tumor tissues for the phosphorylation of TORC1-dependent markers (4EBP1/S6), and TORC2-dependent markers (AKT/PRAS40). 50 patients were treated in 3 intermittent dosing regimens; 21 in 6 cohorts ranging 7-40 mg QW, 20 in 5 cohorts ranging 6-20 mg QD×3d QW, and 9 in 3 cohorts ranging 7-13 mg QD×5d QW. […] The MTD for intermittent dosing was not reached. All adverse events (AEs) reported were reversible. The most common (≧20%, n=35) AEs considered possibly related to compound A reported in all 3 dosing regimens included nausea (51%), hyperglycemia (37%), mucosal inflammation (29%), rash (23%), asthenia (23%), vomiting (26%), and diarrhea (20%). The majority of AEs considered possibly related to compound A in any regimen were Grade 1 or 2. The only reported Grade≧3 AE (≧5%) possibly related to compound A in 3 regimens was lymphopenia (6%). Tables 4-9 show summaries of observed adverse events for various treatment regimens of the invention.

- AUC ([1]; human, plasma, 6 mg QD): 8 µM·h
- Cmax ([1]; human, plasma, 6 mg QD): 150 nM
- AUC ([1]; human, plasma, 10 mg Q5D): 10 µM·h
- Cmax ([1]; human, plasma, 10 mg Q5D): 250 nM
- AUC ([1]; human, plasma, 13 mg Q5D): 13 µM·h
- Cmax ([1]; human, plasma, 13 mg Q5D): 300 nM
- AUC ([1]; human, plasma, 16 mg Q3D): 8 µM·h
- Cmax ([1]; human, plasma, 16 mg Q3D): 350 nM
- AUC ([1]; human, plasma, 20 mg Q3D): 10 µM·h
- Cmax ([1]; human, plasma, 20 mg Q3D): 400 nM
- AUC ([1]; human, plasma, 30 mg QW): 5 µM·h
- Cmax ([1]; human, plasma, 30 mg QW): 600 nM
- AUC ([1]; human, plasma, 40 mg QW): 6.5 µM·h
- Cmax ([1]; human, plasma, 40 mg QW): 700 nM
- Tmax ([1]; human, plasma, oral doses, patients): 0.5 to 4 h
- half-life ([1]; human, plasma, oral doses, patients, read-out: mean elimination plasma t1/2 (converted)): 8 h
- Plasma exposures (Cmax and AUC0-24) versus dose ([1]; oral doses): dose-linear plasma PK
SMILES: CC(C)n1nc(-c2ccc3oc(N)nc3c2)c2c(N)ncnc21 [compound A]
- inhibition at 6 mg [2]: 60%
